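Values below derive from 48-hour exposures of cells grown in 96-well plates, with endpoints linearly interpolated between the two concentrations bracketing the appropriate inhibition level. TGI marks complete inhibition of growth.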
Legend:
Test in all cases: NCI anticancer screen, dose series, 48 h
A549 NSCLC = tested on: A549 NSCLC
CAKI-1 renal = tested on: CAKI-1 renal
COLO 205 colon = tested on: COLO 205 colon
HCT-116 colon = tested on: HCT-116 colon
HCT-15 colon = tested on: HCT-15 colon
HOP-62 NSCLC = tested on: HOP-62 NSCLC
HOP-92 NSCLC = tested on: HOP-92 NSCLC
HT29 colon = tested on: HT29 colon
KM12 colon = tested on: KM12 colon
NCI-H460 lung = tested on: NCI-H460 lung
OVCAR-3 ovarian = tested on: OVCAR-3 ovarian
OVCAR-5 ovarian = tested on: OVCAR-5 ovarian
SF-295 CNS = tested on: SF-295 CNS
SNB-75 CNS = tested on: SNB-75 CNS
UACC-257 melanoma = tested on: UACC-257 melanoma
UO-31 renal = tested on: UO-31 renal
DU-145 prostate = tested on: DU-145 prostate
MCF7 breast = tested on: MCF7 breast
PC-3 prostate = tested on: PC-3 prostate
HS 578T breast = tested on: HS 578T breast

Row | Compound | TGI (A549 NSCLC) [µM] | TGI (CAKI-1 renal) [µM] | TGI (COLO 205 colon) [µM] | TGI (HCT-116 colon) [µM] | TGI (HCT-15 colon) [µM] | TGI (HOP-62 NSCLC) [µM] | TGI (HOP-92 NSCLC) [µM] | TGI (HT29 colon) [µM] | TGI (KM12 colon) [µM] | TGI (NCI-H460 lung) [µM] | TGI (OVCAR-3 ovarian) [µM] | TGI (OVCAR-5 ovarian) [µM] | TGI (SF-295 CNS) [µM] | TGI (SNB-75 CNS) [µM] | TGI (UACC-257 melanoma) [µM] | TGI (UO-31 renal) [µM] | TGI (DU-145 prostate) [µM] | TGI (MCF7 breast) [µM] | TGI (PC-3 prostate) [µM] | TGI (HS 578T breast) [µM]
1 | CCNC(C)Cc1ccccc1 (stereo not given) | > 100 | > 100 | > 100 | > 100 | > 100 | > 100 | > 100 | > 100 | > 100 | > 100 | > 100 | > 100 | > 100 | > 100 | > 100 | > 100 | – | – | – | –
2 | Oc1ccc(-c2csc(NNC3=NC/C(=C/c4ccc5c(c4)OCO5)S3)n2)cc1O | > 100 | 90.7 | > 100 | > 100 | > 100 | > 100 | > 100 | > 100 | > 100 | > 100 | – | > 100 | > 100 | 38.9 | > 100 | 69.2 | > 100 | > 100 | > 100 | –
3 | OC1[C@H]([C@H]2CCCC[C@@H]2O)CCC[C@@H]1[C@@H]1CCCC[C@H]1O (stereo not given in full) | > 100 | > 100 | > 100 | > 100 | > 100 | > 100 | > 100 | > 100 | > 100 | > 100 | > 100 | > 100 | > 100 | > 100 | > 100 | > 100 | – | – | – | –
4 | COC(=O)c1c2c(cc3c1CC1(Cc4cc5c(c(C=O)c4C1)CCCC5)C3)CCCC2 (stereo not given) | > 100 | – | 36.6 | 47.3 | > 100 | > 100 | > 100 | > 100 | – | – | > 100 | > 100 | > 100 | – | > 100 | 0.268 | – | 87.2 | > 100 | > 100
5 | N#CN=C(N)c1sc2nc3c(c(-c4ccc(Br)cc4)c2c1N)CCCC3 | > 100 | 42.4 | 44.8 | 33.1 | 44.7 | – | 77.5 | 48.8 | 59.7 | > 100 | – | > 100 | 58.6 | – | > 100 | 57.6 | 71.9 | > 100 | 52.7 | –
6 | Cc1ccc(S(=O)(=O)N2CCCN(S(=O)(=O)c3ccc(C)cc3)CCN(S(=O)(=O)c3ccc(C)cc3)CCCSCC2)cc1 | > 100 | – | > 100 | > 100 | – | > 100 | > 100 | > 100 | – | > 100 | > 100 | > 100 | > 100 | > 100 | – | > 100 | > 100 | > 100 | – | > 100
7 | Nc1ccc(S(=O)(=O)Nc2nnc(S(N)(=O)=O)s2)cc1 | > 100 | > 100 | > 100 | > 100 | > 100 | – | > 100 | > 100 | > 100 | > 100 | – | > 100 | > 100 | > 100 | – | > 100 | > 100 | > 100 | – | –
8 | CN(C)CCOc1cccc2c1C(=O)c1ccccc1C2=O | 45.4 | 43.8 | 16.1 | 17.2 | 27.3 | 30.9 | 29 | 28.7 | 26.2 | 19.2 | 64 | 40.8 | 29.3 | 28.8 | 25.8 | 45.2 | – | – | – | –
9 | CC(=O)ON(C(C)=O)c1ccc(-c2nc3ccccc3s2)cc1 | > 79 | – | > 53.7 | > 54.7 | > 68.4 | > 55.8 | > 81.6 | 52.4 | 33.2 | > 100 | 66.7 | 98.6 | > 76.4 | > 89.9 | > 83.5 | 33.2 | > 77.1 | – | > 100 | > 88
10 | CC(=O)OC12/C(=N/O)CCCCCC1c1ccccc12 (stereo not given) | > 100 | – | > 100 | > 100 | > 100 | > 100 | – | > 100 | > 100 | > 100 | – | – | > 100 | > 100 | > 100 | > 100 | – | – | – | –
11 | O=S(=O)(O)c1c(Cl)cc(O)c2ncccc12 | > 100 | > 100 | > 100 | > 100 | > 100 | > 100 | > 100 | > 100 | > 100 | > 100 | > 100 | > 100 | > 100 | > 100 | > 100 | > 100 | > 100 | > 100 | > 100 | –
12 | O=c1sc2c(s1)SSSSS2 | > 50 | > 50 | > 50 | > 50 | > 50 | > 50 | > 50 | > 50 | > 50 | > 50 | > 50 | > 50 | > 50 | – | > 50 | > 50 | > 50 | > 50 | > 50 | –
13 | COc1cc(C=O)ccc1Oc1nnnn1-c1ccccc1 | > 100 | 85.3 | > 100 | > 100 | > 100 | > 100 | > 100 | > 100 | > 100 | > 100 | > 100 | > 100 | > 100 | > 100 | > 100 | > 100 | > 100 | – | > 100 | > 100
14 | CC[C@@]1(N(C)C)C(=O)OCc2c1cc1n(c2=O)Cc2cc3ccccc3nc2-1 | > 100 | – | > 100 | > 100 | > 100 | 36.2 | 69.6 | – | > 100 | 50.6 | > 100 | > 100 | 37.2 | 34.5 | > 100 | 77 | 98.1 | > 100 | > 100 | –
